From publication PMC6344423, “Opposing Actions of Adrenocorticotropic Hormone and Glucocorticoids on UCP1-Mediated Respiration in Brown Adipocytes” (Frontiers in Physiology, 2019)
pEC50: −log10 of the molar value. Each block holds one compound with its values, some of them ahead of it. Ends that are not written are not given here.

Legend:
[1] = test system: Ucp1 gene expression in primary brown adipocytes of Ucp1^ki/ki mice; experiment: Luciferase assay, FLUC activity as surrogate for Ucp1 expression; assay type: cell-based, mouse; details: overnight stimulation, normalized to total protein content, n = 3, Figure 1D
Experimental: After overnight stimulation of primary brown adipocytes of Ucp1^ki/ki mice luciferase activity was assayed using a commercial kit system (Luciferase Assay System Freezer Pack E4030, Promega GmbH). Primary cells were lysed in 1x reporter lysis buffer by shaking for 20 min at room temperature. 10 μl lysate was mixed with 50 μl luciferase assay substrate solution, and the mixture was measured by FB12 in a luminometer (Single Tube Luminometer, Titertek-Berthold GmbH). Bioluminescence readouts were normalized to total protein content.
We then measured FLUC activity in primary brown adipocytes from Ucp1^ki/ki reporter gene mice to determine the effect of the GsPCR ligands on Ucp1 gene expression in response to overnight stimulation. As the expression of Fluc in these cells is driven by Ucp1promoter, FLUC activity served as a surrogate for Ucp1 expression.

primary brown adipocytes = experiment: Microplate-based respirometry (XF96), UCP1-mediated uncoupled respiration; assay type: cell-based, mouse; details: for Stimulated respiration (fold increase of basal leak), ACTH heptapeptide fragments: fragments 1 μM, n = 4, Figures 4A,B,D,E; for Stimulated respiration (UCP1-dependent uncoupled respiration) as fold increase of basal leak respiration, GsPCR ligand screen: primary brown adipocytes (129S6 mice), acute addition after oligomycin 5 μM, medium with 1–2% fatty acid free BSA, 37°C, n = 5, Figures 1B,C
Experimental: Oxygen consumption of primary brown adipocytes was measured at 37°C using microplate-based respirometry (XF96 extracellular flux analyzer, Seahorse Bioscience) as described previously ([Li et al., 2014b]) following the subsequent protocol at day 7 of differentiation. Prior to the respiration measurement, primary cells were washed with warmed, unbuffered assay medium (DMEM basal medium supplemented with 25 mM glucose, 31 mM NaCl, 2 mM GlutaMax and 15 mg/l phenol red, pH 7.4) (basal assay medium). Subsequent to the medium replacement with basal assay medium containing 1–2% essentially fatty acid free bovine serum albumin (BSA), cells were incubated at 37°C in a CO2-free incubator for 1 h. Assay reagents were loaded into the drug injections ports of the sensor cartridges at 10X in basal assay medium (no BSA). After assessment of basal oxygen consumption in untreated cells oligomycin (5 μM) was injected to inhibit coupled respiration and to determine basal leak respiration. Next, effector was added to investigate UCP1-dependant uncoupled respiration. By the addition of FCCP (1 μM) maximal respiratory capacity was determined. Lastly, non-mitochondrial oxygen consumption was assessed by blocking mitochondrial respiration with antimycin A (5 μM). For some experiments, cells were pretreated for 1 h with 50 μM H89 (PKA inhibitor), 1–100 μM propranolol (β-adrenergic receptor antagonist), 40 μM Atglistatin (ATGL inhibitor) and 40 μM Hi76-0079 (HSL inhibitor) 1 h prior to the measurement. Oxygen consumption rates were automatically calculated by the Seahorse XF-96 software. Each experiment was repeated at least three times with similar results and five to eight replicate wells for every condition in each independent experiment. Results are predominately expressed as stimulated respiration which is calculated as fold increase of basal leak.
In our first screen, we tested whether these GsPCR ligands can activate oxygen consumption acutely in brown adipocytes. UCP1-mediated uncoupled respiration was quantified in cultured adherent intact primary brown adipocytes, according to a protocol established in our lab ([Li et al., 2014b]). After recording basal respiration and the fraction of coupled and uncoupled respiration, UCP1-dependent respiration was measured. Finally, maximal respiratory capacity and non-mitochondrial oxygen consumption were assessed by adding the uncoupling agent carbonyl cyanide 4-(trifluoromethoxy) phenylhydrazone (FCCP) and antimycin A was added to block the electron transport chain, respectively. All respiration assays were performed in the presence of BSA to buffer free fatty acid (FFA) levels in the respiration medium.

[2] = test system: cytosolic cAMP in primary brown adipocytes; experiment: Quantification of cellular cAMP (cAMP-Glo Assay); assay type: cell-based, mouse
Experimental: Changes in cytosolic cAMP concentrations were determined in primary brown adipocytes in response to ACTH- or isoproterenol stimulation using cAMP-Glo Assay (Promega) following the manufacturer’s instructions.

[3] = test system: Ucp1 mRNA in primary brown adipocytes; experiment: Ucp1 gene expression analysis (qRT-PCR), brown adipocytes; assay type: cell-based, mouse; details: for Ucp1 mRNA expression, ACTH heptapeptide fragments: normalized to Gtf2b, n = 4, Figures 4C,F
Experimental: (§1) Total RNA was isolated using Trisure (Bioline) and purified with SV total RNA Isolation System (Promega). Reverse transcriptase reactions were performed using SensiFAST cDNA Synthesis Kit (Bioline). Quantitative real-time PCR (qRT-PCR) was performed with SYBR green fluorescent dye in 384-well format using LightCycler 480 (Roche). General Transcription Factor IIB (Gtf2b) served as an internal control. To be able to calculate relative gene expression levels of samples, standard reactions containing serial diluted pooled cDNA of all samples (Pure, 1:2, 1:4, 1:8, 1:16, 1:32 and 1:64) as a template were used to establish a standard curve. The RNA abundance of Ucp1 gene was normalized to the housekeeping gene Gtf2b. The following primers were used: […]

[4] = test system: β3-adrenergic receptor (Adrb3) expression; experiment: Adrb3 gene expression (qRT-PCR) in primary brown adipocytes; assay type: cell-based, mouse; details: 5 μM Dexa, 0–4 h, n = 4
Experimental: as §1

[5] = test system: melanocortin 2 receptor (Mc2r) expression; experiment: Mc2r gene expression (qRT-PCR) in primary brown adipocytes; assay type: cell-based, mouse; details: 5 μM Dexa, 0–4 h, n = 4
Experimental: as §1

[6] = test system: Ucp1 mRNA and UCP1 protein; set-up: method as in Soumano et al., 2000; van den Beukel et al., 2014; details: ref Soumano et al., 2000; van den Beukel et al., 2014; cited from earlier work
Source text: To address the physiological role of ACTH in brown fat thermogenesis we analyzed the expression of its receptor in BAT of mice in response to cold exposure. […] Basically, ACTH triggers the release of glucocorticoids from the cortex of the adrenal gland. Circulating glucocorticoids exert negative feedback control on the […] ...

release of FFAs = details: lipolysis as criterion of potency; ref Draper et al., 1973; cited from earlier work
Source text: The heptapeptide sequence, Met-Glu-His-Phe-Arg-Trp-Gly, is common to all the adrenocorticotropic (ACTH), melanotropic (MSH), and lipotropic (LPH) hormones.

[7] = 5 μM Dexa pretreatment, n = 4, Figure 5G

Compound: CCNC(=O)[C@H]1O[C@@H](n2cnc3c(N)nc(NCCc4ccc(CCC(=O)O)cc4)nc32)[C@H](O)[C@@H]1O [CGS21680]
- FLUC (luciferase) activity as surrogate for Ucp1 expression [1]: no effect on FLUC

Compound: C[C@@H]1C[C@H]2[C@@H]3CCC4=CC(=O)C=C[C@]4(C)[C@@]3(F)[C@@H](O)C[C@]2(C)[C@@]1(O)C(=O)CO [Dexa, dexamethasone]
- Effect of Dexa pretreatment on ACTH-induced respiration (primary brown adipocytes; 5 μM Dexa, 0–4 h, n = 4, Figure 5C): unaffected
- Effect of Dexa pretreatment on ISO-stimulated respiration (primary brown adipocytes; 5 μM Dexa, 0–4 h, with increasing exposure time, n = 4, Figure 5C): attenuated ISO-stimulated respiration
- Effect of Dexa on respiration, one-hour pre-treatment or acute stimulation (primary brown adipocytes; 5 μM Dexa, n = 4, Figure 5B): had no effect on respiration
- Effect of DEXA treatment on thermogenic response, 1 h (primary brown adipocytes; DEXA treatment for 1 h): had no effect
- Effect of DEXA treatment on thermogenic response to ISO, 4 h (primary brown adipocytes; extended DEXA treatment for 4 h, compared with 2 h): more pronounced
- Effect of DEXA treatment on thermogenic response to ISO, 2 h (primary brown adipocytes; two hours of DEXA treatment): significant downregulation of the thermogenic response to ISO
- Effect of Dexa on ACTH induced rise in cellular cAMP [2, 7]: no such effect was observed for ACTH
- Effect of Dexa on ISO induced rise in cellular cAMP [2, 7]: attenuated the ISO induced rise in cellular cAMP levels
- Effect of Dexa on Ucp1 expression ([3]; 4-h treatment, 5 μM Dexa, n = 4): no significant effect on Ucp1 expression
- Effect of Dexa on expression of the β3-adrenergic receptor [4]: not a consequence of reduced or increased expression
- Effect of Dexa on expression of the melanocortin 2 receptor [5]: not a consequence of reduced or increased expression

Compound: O=S(=O)(NCCNC/C=C/c1ccc(Br)cc1)c1cccc2cnccc12 [H89]
- Effect of PKA inhibitor on ACTH-stimulated respiration (primary brown adipocytes; H89 50 μM, ACTH 1 μM, n = 4, Figure 2E): completely blocked the effect on respiration of ACTH

Compound: CC(C)NCC(O)c1ccc(O)c(O)c1 (stereo not drawn) [ISO, isoproterenol]
- pEC50 ([2]; Mus musculus, Adipocyte, 0.5 h, stimulation for 30 min, n = 3, non-linear regression, Figure 2D): 8.03

Compound: C[C@]12C[C@H](O)[C@H]3[C@@H](CCC4=CC(=O)CC[C@@]43C)[C@@H]1CC[C@@H]2C(=O)CO [corticosterone]
- Effect on Ucp1 mRNA and UCP1 protein in response to adrenergic stimulation and ACTH treatment [6]: reduces Ucp1 mRNA and UCP1 protein

Compound: CC(C)NCC(O)COc1cccc2ccccc12 (stereo not drawn) [propranolol]
- Effect of propranolol pre-treatment on ACTH stimulated respiration (primary brown adipocytes; 1 h pretreatment, 1–100 μM propranolol, ACTH 1 μM, n = 4, Figure 2B): did not attenuate ACTH stimulated respiration
- Effect of propranolol pre-treatment on ISO stimulated respiration (primary brown adipocytes; 1 h pretreatment, 1–100 μM propranolol, ISO 0.5 μM, n = 4, Figure 2B): blocking the effect of ISO in a dose-dependent manner

Compound: MRHFRWG [synACTH(4-10), mutant ACTH fragment, synthetic analog of ACTH(4-10) with amino acid exchange from Glu to Arg]
- Stimulated respiration (fold increase of basal leak), ACTH heptapeptide fragments (primary brown adipocytes): mildly increased respiration
- Ucp1 mRNA expression, ACTH heptapeptide fragments [3]: comparable to that of the natural heptapeptide
- Activity on the release of FFAs compared to the natural ACTH core sequence (release of FFAs): fourfold increased activity on the release of FFAs

Compound: Met-Glu-His-Phe-Arg-Trp-Gly [ACTH(4-10)]
- Stimulated respiration (fold increase of basal leak), ACTH heptapeptide fragments (primary brown adipocytes): no impact on respiration
- Ucp1 mRNA expression, ACTH heptapeptide fragments [3]: significantly increased Ucp1 mRNA expression

Compound: PACAP: pituitary adenylate cyclase-activating peptide
- Stimulated respiration (UCP1-dependent uncoupled respiration) as fold increase of basal leak respiration, GsPCR ligand screen (primary brown adipocytes): weakest effects on cellular respiration
- FLUC (luciferase) activity as surrogate for Ucp1 expression [1]: highest FLUC activities

Now from value to compound, other results behind:

- FLUC (luciferase) activity as surrogate for Ucp1 expression [1]: moderate rise in FLUC activity
Compound: CCCCC[C@H](O)/C=C/[C@H]1[C@H](O)CC(=O)[C@@H]1C/C=C\CCCC(=O)O [PGE2, Prostaglandin E2]

- FLUC (luciferase) activity as surrogate for Ucp1 expression [1]: highest FLUC activities
Compound: PTH: parathyroid hormone, ligand of PTHR
- Stimulated respiration (UCP1-dependent uncoupled respiration) as fold increase of basal leak respiration, GsPCR ligand screen (primary brown adipocytes): modest compared to ISO

- FLUC (luciferase) activity as surrogate for Ucp1 expression [1]: only had minor effects
Compound: adrenomedullin: ligand for calcitonin receptor-like receptor (CALCRL)

- FLUC (luciferase) activity as surrogate for Ucp1 expression [1]: highest FLUC activities
Compound: secretin: peptide ligand of the secretin receptor
- Stimulated respiration (UCP1-dependent uncoupled respiration) as fold increase of basal leak respiration, GsPCR ligand screen (primary brown adipocytes): most prominent induction of UCP1-dependant uncoupled respiration

- FLUC (luciferase) activity as surrogate for Ucp1 expression [1]: no effect on FLUC
Compound: thyroid hormone

- FLUC (luciferase) activity as surrogate for Ucp1 expression [1]: moderate rise in FLUC activity
Compound: α-MSH: α-melanocyte-stimulating hormone, melanocortin
- Stimulated respiration (UCP1-dependent uncoupled respiration) as fold increase of basal leak respiration, GsPCR ligand screen (primary brown adipocytes): weakest effects on cellular respiration
